target: T1, chimeric human H3 receptor (Homo sapiens, UniProt Q9Y5N1); experiment: Chimeric human H3 receptor screening GTP binding assay (inhibition of histamine-stimulated GTP-gamma35S binding, Example 8); type: biochemical; conditions: Table II "Ki", symbol †, 4 μM of the compound, 1 μM histamine, read-out: percent inhibition of the signal obtained with 1 μM histamine
T1 construct: made in house; host or cells: Sf9 insect cells (baculovirus); P2 membrane preparation
In short: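 Sf9 membranes co-expressing chimeric human H3 receptor and heterotrimeric G-protein, 35 μg per reaction, incubated 60 min at room temperature with 4 μM compound, 1 μM histamine, 10 μM GDP and […] GTP-gamma35S at pH 7.4. Filter-bound radioactivity counted. Result expressed as percent inhibition of the histamine signal after subtracting non-specific binding (10 μM GTP-gammaS).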

T1 sequence (Q9Y5N1 with tags, fused parts or gaps): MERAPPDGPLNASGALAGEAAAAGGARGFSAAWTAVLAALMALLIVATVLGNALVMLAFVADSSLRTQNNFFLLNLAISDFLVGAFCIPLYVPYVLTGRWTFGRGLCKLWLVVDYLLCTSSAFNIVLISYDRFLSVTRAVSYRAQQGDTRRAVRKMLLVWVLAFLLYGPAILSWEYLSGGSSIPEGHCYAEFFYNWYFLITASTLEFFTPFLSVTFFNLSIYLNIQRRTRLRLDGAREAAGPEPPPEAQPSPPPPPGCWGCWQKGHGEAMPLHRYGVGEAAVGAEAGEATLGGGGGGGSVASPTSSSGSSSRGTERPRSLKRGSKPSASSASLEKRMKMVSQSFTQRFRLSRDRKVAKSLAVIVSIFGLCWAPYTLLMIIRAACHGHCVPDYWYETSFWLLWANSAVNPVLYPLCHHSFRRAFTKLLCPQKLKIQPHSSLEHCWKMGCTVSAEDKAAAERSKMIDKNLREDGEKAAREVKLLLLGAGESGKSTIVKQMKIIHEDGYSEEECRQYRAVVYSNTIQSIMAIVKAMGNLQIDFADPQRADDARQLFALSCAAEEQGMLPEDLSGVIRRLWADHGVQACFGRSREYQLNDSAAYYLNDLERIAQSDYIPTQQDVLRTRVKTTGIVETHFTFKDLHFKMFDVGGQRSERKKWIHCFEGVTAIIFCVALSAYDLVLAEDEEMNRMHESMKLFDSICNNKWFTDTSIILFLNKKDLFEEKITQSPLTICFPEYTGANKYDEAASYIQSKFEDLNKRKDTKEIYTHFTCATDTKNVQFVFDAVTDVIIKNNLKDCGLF

Inhibition at 4 µM, ≥ 90%:
COc1ccc(OC)c(-c2ccc3c(c2)CCN(CC(=O)N2CCN(C4CCCCC4)CC2)C3)c1 [Compound 561, 2-[2-(4-cyclohexylpiperazin-1-yl)-2-oxoethyl]-6-(2,5-dimethoxyphenyl)-1,2,3,4-tetrahydroisquinoline]
COc1ccc(OC)c(-c2ccc3c(c2)CCN(CC(=O)N2CCN(C(C)C)CC2)C3)c1 [Compound 562, 6-(2,5-dimethoxyphenyl)-2-[2-(4-isopropylpiperazin-1-yl)-2-oxoethyl]-1,2,3,4-tetrahydroisoquinoline]
COc1ccc(-c2ccc3c(c2)CCN(CC(=O)N2CCN(C4CCC4)CC2)C3)c(OC)c1 [Compound 563, 2-[2-(4-cyclobutylpiperazin-1-yl)-2-oxoethyl]-6-(2,4-dimethoxyphenyl)-1,2,3,4-tetrahydroisoquinoline]
COc1ccc(-c2ccc3c(c2)CCN(CC(=O)N2CCN(C4CCCC4)CC2)C3)c(OC)c1 [Compound 564, 2-[2-(4-cyclopentylpiperazin-1-yl)-2-oxoethyl]-6-(2,4-dimethoxyphenyl)-1,2,3,4-tetrahydroisoquinoline]
COc1ccc(-c2ccc3c(c2)CCN(CC(=O)N2CCN(C4CCCCC4)CC2)C3)c(OC)c1 [Compound 565, 2-[2-(4-cyclohexylpiperazin-1-yl)-2-oxoethyl]-6-(2,4-dimethoxyphenyl)-1,2,3,4-tetrahydroisoquinoline]
CCOc1ccccc1-c1ccc2c(c1)CCN(CC(=O)N1CCN(C3CCC3)CC1)C2 [Compound 566, 2-[2-(4-cyclobutylpiperazin-1-yl)-2-oxoethyl]-6-(2-ethoxyphenyl)-1,2,3,4-tetrahydroisoquinoline]
CCOc1ccccc1-c1ccc2c(c1)CCN(CC(=O)N1CCN(C3CCCC3)CC1)C2 [Compound 567, 2-[2-(4-cyclopentylpiperazin-1-yl)-2-oxoethyl]-6-(2-ethoxyphenyl)-1,2,3,4-tetrahydroisoquinoline]
CCOc1ccccc1-c1ccc2c(c1)CCN(CC(=O)N1CCN(C3CCCCC3)CC1)C2 [Compound 568, 2-[2-(4-cyclohexylpiperazin-1-yl)-2-oxoethyl]-6-(2-ethoxyphenyl)-1,2,3,4-tetrahydroisoquinoline]
CCOc1ccccc1-c1ccc2c(c1)CCN(CC(=O)N1CCN(C(C)C)CC1)C2 [Compound 569, 6-(2-ethoxyphenyl)-2-[2-(4-isopropylpiperazin-1-yl)-2-oxoethyl]-1,2,3,4-tetrahydroisoquinoline]
COc1ccc(F)cc1-c1ccc2c(c1)CCN(CC(=O)N1CCN(C3CCC3)CC1)C2 [Compound 570, 2-[2-(4-cyclobutylpiperazin-1-yl)-2-oxoethyl]-6-(5-fluoro-2-methoxyphenyl)-1,2,3,4-tetrahydroisoquinoline]
COc1ccc(F)cc1-c1ccc2c(c1)CCN(CC(=O)N1CCN(C3CCCC3)CC1)C2 [Compound 571, 2-[2-(4-cyclopentylpiperazin-1-yl)-2-oxoethyl]-6-(5-fluoro-2-methoxyphenyl)-1,2,3,4-tetrahydroisoquinoline]
COc1ccc(C)cc1-c1ccc2c(c1)CCN(CC(=O)N1CCN(C3CCC3)CC1)C2 [Compound 572, 2-[2-(4-cyclobutylpiperazin-1-yl)-2-oxoethyl]-6-(2-methoxy-5-methylphenyl)-1,2,3,4-tetrahydroisoquinoline]
COc1ccc(C)cc1-c1ccc2c(c1)CCN(CC(=O)N1CCN(C3CCCC3)CC1)C2 [Compound 573, 2-[2-(4-cyclopentylpiperazin-1-yl)-2-oxoethyl]-6-(2-methoxy-5-methylphenyl)-1,2,3,4-tetrahydroisoquinoline]
COc1ccc(C)cc1-c1ccc2c(c1)CCN(CC(=O)N1CCN(C3CCCCC3)CC1)C2 [Compound 574, 2-[2-(4-cyclohexylpiperazin-1-yl)-2-oxoethyl]-6-(2-methoxy-5-methylphenyl)-1,2,3,4-tetrahydroisoquinoline]

Source: patent publication US20110082130A1 (LIGAND PHARMACEUTICALS, INC., priority 2006, published 2011)
